Test results from patent US9856279B2 (AGIOS PHARMACEUTICALS, INC, priority 2011, dated 2018).

Each molecule was assayed against IDH1 R132H (Homo sapiens, UniProt O75874, R132H) (assay: Assay for IDH1 R132H inhibitors (NADPH/aKG, resazurin detection)). Settings: Table 3; enzyme assay, 50 minutes at room temperature; read-out: IC50 (IDH1 R132H Inhibition).
Type: biochemical
Summary of the method: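 Read-out is resorufin fluorescence (Ex544/Em590) 5 min after adding a 30 μM resazurin detection mix. Before that, mutant enzyme (0.2 μg/ml in its mix) ran 50 min at room temperature with compound, 8 uM NADPH and 2 mM aKG (mix levels) in Tris pH 7.5 with NaCl, MgCl2, BSA.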

IDH1 R132H, sequence (O75874 whole entry R132H): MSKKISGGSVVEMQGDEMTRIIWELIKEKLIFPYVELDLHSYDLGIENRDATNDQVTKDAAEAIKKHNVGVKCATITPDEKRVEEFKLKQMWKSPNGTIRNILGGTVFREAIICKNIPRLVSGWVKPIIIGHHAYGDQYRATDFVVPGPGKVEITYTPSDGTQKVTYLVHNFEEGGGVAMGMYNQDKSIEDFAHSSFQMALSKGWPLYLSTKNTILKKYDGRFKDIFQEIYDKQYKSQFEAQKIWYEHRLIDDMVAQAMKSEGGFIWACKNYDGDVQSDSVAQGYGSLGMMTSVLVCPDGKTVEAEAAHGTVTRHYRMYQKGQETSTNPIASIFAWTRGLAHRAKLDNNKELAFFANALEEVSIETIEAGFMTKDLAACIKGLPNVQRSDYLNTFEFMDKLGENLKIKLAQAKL

| Structure (SMILES) | IC50 [nM] |
| --- | --- |
| COCCC(=O)N1CCN(c2nc(C3CC3)c(-c3cccc(OC(F)(F)F)c3)cc2C#N)C[C@H]1C [Compound 228, (R)-6-cyclopropyl-2-(4-(3-methoxypropanoyl)-3-methylpiperazin-1-yl)-5-(3-(trifluoromethoxy)phenyl)-nicotinonitrile] | 1000 to 5000 |
| COCCC(=O)N1CCN(c2nc(C3CC3)c(-c3cccc(F)c3)cc2C#N)C[C@H]1C [Compound 229, (R)-6-cyclopropyl-5-(3-fluorophenyl)-2-(4-(3-methoxypropanoyl)-3-methylpiperazin-1-yl)nicotinonitrile] | ≤ 1000 |
| COCCC(=O)N1CCN(c2nc(C(C)C)c(-c3cccc(OC(F)(F)F)c3)cc2C#N)C[C@H]1C [Compound 230, (R)-6-isopropyl-2-(4-(3-methoxypropanoyl)-3-methylpiperazin-1-yl)-5-(3-(trifluoromethoxy)phenyl)nicotinonitrile] | 1000 to 5000 |
| COCCC(=O)N1CCN(c2nc(C(C)C)c(-c3cccc(F)c3)cc2C#N)C[C@H]1C [Compound 231, (R)-5-(3-fluorophenyl)-6-isopropyl-2-(4-(3-methoxypropanoyl)-3-methylpiperazin-1-yl)nicotinonitrile] | 1000 to 5000 |
| COCCC(=O)N1CCN(c2nc(C(C)C)c(-c3ccc(OC(F)(F)F)cc3)cc2C#N)C[C@H]1C [Compound 232, (R)-6-isopropyl-2-(4-(3-methoxypropanoyl)-3-methylpiperazin-1-yl)-5-(4-(trifluoromethoxy)phenyl)nicotinonitrile] | 1000 to 5000 |
| COCCC(=O)N1CCN(c2nc(C(C)C)c(-c3ccc4c(c3)OCCO4)cc2C#N)C[C@H]1C [Compound 233, (R)-5-(2,3-dihydrobenzo[b][1,4]dioxin-6-yl)-6-isopropyl-2-(4-(3-methoxypropanoyl)-3-methylpiperazin-1-yl)nicotinonitrile] | 1000 to 5000 |
| COCCC(=O)N1CCN(c2nc(C(C)C)c(-c3cncc4ccccc34)cc2C#N)C[C@H]1C [Compound 234, (R)-6-isopropyl-5-(isoquinolin-4-yl)-2-(4-(3-methoxypropanoyl)-3-methylpiperazin-1-yl)nicotinonitrile] | ≤ 1000 |
| COCCC(=O)N1CCN(c2nc(C3CC3)c(-c3ccc(C)c(F)c3)cc2C#N)C[C@H]1C [Compound 235, (R)-6-cyclopropyl-5-(3-fluoro-4-methylphenyl)-2-(4-(3-methoxypropanoyl)-3-methylpiperazin-1-yl)nicotinonitrile] | ≤ 1000 |
| COCCC(=O)N1CCN(c2nc(C3CC3)c(-c3cccc(OC)c3)cc2C#N)C[C@H]1C [Compound 236, (R)-6-cyclopropyl-5-(3-methoxyphenyl)-2-(4-(3-methoxypropanoyl)-3-methylpiperazin-1-yl)nicotinonitrile] | ≤ 1000 |
| COCCC(=O)N1CCN(c2nc(C3CC3)c(-c3ccc(OC)c(OC)c3)cc2C#N)C[C@H]1C [Compound 237, (R)-6-cyclopropyl-5-(3,4-dimethoxyphenyl)-2-(4-(3-methoxypropanoyl)-3-methylpiperazin-1-yl)nicotinonitrile] | 1000 to 5000 |
| COCCC(=O)N1CCN(c2nc(C(C)C)c(Cc3ccccc3)cc2C#N)C[C@H]1C [Compound 239, (R)-5-benzyl-6-isopropyl-2-(4-(3-methoxypropanoyl)-3-methylpiperazin-1-yl)nicotinonitrile] | 1000 to 5000 |
| COCCC(=O)N1CCN(c2nc(-c3ccccc3)c(-c3ccccc3)cc2C#N)C[C@H]1C [Compound 240, (R)-2-(4-(3-methoxypropanoyl)-3-methylpiperazin-1-yl)-5,6-diphenylnicotinonitrile] | 1000 to 5000 |
| COCCC(=O)N1CCN(c2nc(C3CC3)c(-c3ccc(F)cc3)c(C)c2C#N)C[C@H]1C [Compound 241, (R)-6-cyclopropyl-5-(4-fluorophenyl)-2-(4-(3-methoxypropanoyl)-3-methylpiperazin-1-yl)-4-methylnicotinonitrile] | ≤ 1000 |
| COCCC(=O)N1CCN(c2nc(C3CC3)c(-c3cncc4ccccc34)cc2C#N)C[C@H]1C [Compound 242, (R)-6-cyclopropyl-5-(isoquinolin-4-yl)-2-(4-(3-methoxypropanoyl)-3-methylpiperazin-1-yl)nicotinonitrile] | ≤ 1000 |
| COCCC(=O)N1CCN(c2nc(C3CC3)c(-c3cccc(C)c3)c(C)c2C#N)C[C@H]1C [Compound 243, (R)-6-cyclopropyl-2-(4-(3-methoxypropanoyl)-3-methylpiperazin-1-yl)-4-methyl-5-m-tolylnicotinonitrile] | ≤ 1000 |
| COCCC(=O)N1CCN(c2nc(C(C)C)c(-c3ccc(F)cc3)cc2C(=O)OC)C[C@H]1C [Compound 244, (R)-methyl 5-(4-fluorophenyl)-6-isopropyl-2-(4-(3-methoxypropanoyl)-3-methylpiperazin-1-yl)nicotinate] | 1000 to 5000 |
| COCCC(=O)N1CCN(c2nc(C3CC3)c(Cc3ccccc3)c(C)c2C#N)C[C@H]1C [Compound 245, (R)-5-benzyl-6-cyclopropyl-2-(4-(3-methoxypropanoyl)-3-methylpiperazin-1-yl)-4-methylnicotinonitrile] | 1000 to 5000 |

| Structure (SMILES) | IC50 [nM] |
| --- | --- |
| COCCC(=O)N1CCN(c2nc(C3CC3)c(-c3ccsc3)cc2C#N)C[C@H]1C [Compound 246, (R)-6-cyclopropyl-2-(4-(3-methoxypropanoyl)-3-methylpiperazin-1-yl)-5-(thiophen-3-yl)nicotinonitrile] | ≤ 1000 |
| COCCC(=O)N1CCN(c2nc(C3CC3)c(-c3cc4ccccc4s3)cc2C#N)C[C@H]1C [Compound 247, (R)-5-(benzo[b]thiophen-2-yl)-6-cyclopropyl-2-(4-(3-methoxypropanoyl)-3-methylpiperazin-1-yl)nicotinonitrile] | 1000 to 5000 |
| COCCC(=O)N1CCN(c2nc(C3CC3)c(-c3ccc(F)c(Cl)c3)cc2C#N)C[C@H]1C [Compound 248, (R)-5-(3-chloro-4-fluorophenyl)-6-cyclopropyl-2-(4-(3-methoxypropanoyl)-3-methylpiperazin-1-yl)nicotinonitrile] | ≤ 1000 |
| COCCC(=O)N1CCN(c2nc(C3CC3)c(-c3ccccc3F)cc2C#N)C[C@H]1C [Compound 249, (R)-6-cyclopropyl-5-(2-fluorophenyl)-2-(4-(3-methoxypropanoyl)-3-methylpiperazin-1-yl)nicotinonitrile] | ≤ 1000 |
| COCCC(=O)N1CCN(c2nc(C3CC3)c(-c3ccc(F)cc3F)cc2C#N)C[C@H]1C [Compound 250, (R)-6-cyclopropyl-5-(2,4-difluorophenyl)-2-(4-(3-methoxypropanoyl)-3-methylpiperazin-1-yl)nicotinonitrile] | ≤ 1000 |
| COCCC(=O)N1CCN(c2nc(C3CC3)c(-c3cccc(OC)c3)c(C)c2C#N)C[C@H]1C [Compound 251, (R)-6-cyclopropyl-5-(3-methoxyphenyl)-2-(4-(3-methoxypropanoyl)-3-methylpiperazin-1-yl)-4-methylnicotinonitrile] | ≤ 1000 |
| COCCC(=O)N1CCN(c2nc(C3CC3)c(-c3ccc(OC)nc3)cc2C#N)C[C@H]1C [Compound 252, (R)-2-cyclopropyl-6′-methoxy-6-(4-(3-methoxypropanoyl)-3-methylpiperazin-1-yl)-3,3′-bipyridine-5-carbonitrile] | ≤ 1000 |
| COCCC(=O)N1CCN(c2nc(C3CC3)c(-c3ccc4[nH]ccc4c3)cc2C#N)C[C@H]1C [Compound 253, (R)-6-cyclopropyl-5-(1H-indol-5-yl)-2-(4-(3-methoxypropanoyl)-3-methylpiperazin-1-yl)nicotinonitrile] | ≤ 1000 |
| COCCC(=O)N1CCN(c2nc(C(C)C)c(OCc3ccccc3)cc2C#N)C[C@H]1C [Compound 254, (R)-5-(benzyloxy)-6-isopropyl-2-(4-(3-methoxypropanoyl)-3-methylpiperazin-1-yl)nicotinonitrile] | 1000 to 5000 |
| COCCC(=O)N1CCN(c2nc(C3CC3)c(-c3ccc(OC(F)(F)F)cc3)c(C)c2C#N)C[C@H]1C [Compound 255, (R)-6-cyclopropyl-2-(4-(3-methoxypropanoyl)-3-methylpiperazin-1-yl)-4-methyl-5-(4-(trifluoromethoxy)-phenyl)nicotinonitrile] | ≤ 1000 |
| COCCC(=O)N1CCN(c2nc(C3CC3)c(-c3ccc(F)cc3F)c(C)c2C#N)C[C@H]1C [Compound 256, 6-cyclopropyl-5-(2,4-difluorophenyl)-2-((R)-4-(3-methoxypropanoyl)-3-methylpiperazin-1-yl)-4-methyl-nicotinonitrile] | ≤ 1000 |
| COCCC(=O)N1CCN(c2nc(C3CC3)c(-c3cccc(F)c3)c(C)c2C#N)C[C@H]1C [Compound 257, (R)-6-cyclopropyl-5-(3-fluorophenyl)-2-(4-(3-methoxypropanoyl)-3-methylpiperazin-1-yl)-4-methylnicotinonitrile] | ≤ 1000 |
| COCCC(=O)N1CCN(c2nc(C3CC3)c(-c3ccc(C)c(F)c3)c(C)c2C#N)C[C@H]1C [Compound 258, (R)-6-cyclopropyl-5-(3-fluoro-4-methylphenyl)-2-(4-(3-methoxypropanoyl)-3-methylpiperazin-1-yl)-4-methylnicotinonitrile] | ≤ 1000 |
| COCCC(=O)N1CCN(c2nc(C3CC3)c(-c3ccc4ccccc4c3)c(C)c2C#N)C[C@H]1C [Compound 259, (R)-6-cyclopropyl-2-(4-(3-methoxypropanoyl)-3-methylpiperazin-1-yl)-4-methyl-5-(naphthalen-2-yl)nicotinonitrile] | ≤ 1000 |
| COCCC(=O)N1CCN(c2nc(C3CC3)c(-c3ccncc3)c(C)c2C#N)C[C@H]1C [Compound 260, (R)-2-cyclopropyl-6-(4-(3-methoxypropanoyl)-3-methylpiperazin-1-yl)-4-methyl-3,4′-bipyridine-5-carbonitrile] | ≤ 1000 |
| COCCC(=O)N1CCN(c2nc(C3CC3)c(-c3ccc4c(c3)OCO4)c(C)c2C#N)C[C@H]1C [Compound 261, (R)-5-(benzo[d][1,3]dioxol-5-yl)-6-cyclopropyl-2-(4-(3-methoxypropanoyl)-3-methylpiperazin-1-yl)-4-methylnicotinonitrile] | ≤ 1000 |
